# Experiments:
# [1] = molecular target: T1, recombinant human Estrogen Receptor alpha ligand binding domain, residues 307-554 (ER alpha-LBD (GST)) (Homo sapiens, UniProt P03372); test: ERα binding assay (LanthaScreen TR-FRET competition); conditions: TR-FRET competition with Fluormone ES2 tracer, 4 hours at room temperature; single experiment or average of two or more
# T1 construct: made in house
# T1 sequence (P03372 307-554): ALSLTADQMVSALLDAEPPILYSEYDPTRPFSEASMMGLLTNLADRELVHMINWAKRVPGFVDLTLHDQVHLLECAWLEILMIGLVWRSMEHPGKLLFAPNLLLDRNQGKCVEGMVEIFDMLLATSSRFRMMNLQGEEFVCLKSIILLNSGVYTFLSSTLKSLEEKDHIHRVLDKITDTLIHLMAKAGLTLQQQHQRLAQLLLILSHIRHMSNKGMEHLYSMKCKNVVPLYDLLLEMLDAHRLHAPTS
# [2] = molecular target: T2, Estrogen Receptor (ERα) in MCF-7 human ductal carcinoma breast cell line (Homo sapiens, UniProt P03372); test: MCF-7 ER degradation assay (cell based immuno-fluorescence); conditions: MCF-7 cells; for DC50: 18-22 hours incubation, 50% reduction of ERα expression, single experiment or average of two or more, read-out: MCF-7 ER degradation IC50
# T2 construct: endogenous in cells; host or cells: MCF-7
# T2 sequence (P03372 1-595): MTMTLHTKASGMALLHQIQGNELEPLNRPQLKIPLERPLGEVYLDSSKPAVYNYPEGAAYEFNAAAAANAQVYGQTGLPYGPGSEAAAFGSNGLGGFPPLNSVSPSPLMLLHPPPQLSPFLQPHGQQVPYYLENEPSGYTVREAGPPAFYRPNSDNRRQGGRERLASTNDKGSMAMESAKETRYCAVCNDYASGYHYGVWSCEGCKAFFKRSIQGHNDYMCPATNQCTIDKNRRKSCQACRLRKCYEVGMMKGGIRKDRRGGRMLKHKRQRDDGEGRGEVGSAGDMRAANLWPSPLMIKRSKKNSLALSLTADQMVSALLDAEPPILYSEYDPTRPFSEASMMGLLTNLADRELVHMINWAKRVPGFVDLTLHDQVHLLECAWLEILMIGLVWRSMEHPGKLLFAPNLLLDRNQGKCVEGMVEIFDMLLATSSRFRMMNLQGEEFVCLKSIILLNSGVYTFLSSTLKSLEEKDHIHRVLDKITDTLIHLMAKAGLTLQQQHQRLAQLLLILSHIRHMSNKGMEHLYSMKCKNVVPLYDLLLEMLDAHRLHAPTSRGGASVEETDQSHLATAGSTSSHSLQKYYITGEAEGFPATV
# Procedure, shortened: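 MCF-7 human ductal carcinoma breast cells were seeded at 3.75×10^4 cells per mL (40 μL per well) in 384 well plates with phenol red free DMEM containing 2 mM L-Glutamine and 5% (v/v) Charcoal/Dextran treated foetal calf serum. After overnight culture, compounds were acoustically dispensed, incubated 18-22 hours, then cells were formaldehyde-fixed and immunostained for ERα.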
compound,measurement,setting,value
"Cc1ncsc1-c1ccc(CNC(=O)[C@@H]2C[C@@H](O)CN2C(=O)[C@@H](NC(=O)CN2CC3(CCN(CCOc4cc(F)c([C@@H]5c6[nH]c7ccccc7c6C[C@@H](C)N5CC(C)(C)F)c(F)c4)CC3)C2)C(C)(C)C)cc1 [Example 42, (2S,4R)-1-((S)-2-(2-(7-(2-(3,5-difluoro-4-((1R,3R)-2-(2-fluoro-2-methylpropyl)-3-methyl-2,3,4,9-tetrahydro-1H-pyrido[3,4-b]indol-1-yl)phenoxy)ethyl)-2,7-diazaspiro[3.5]nonan-2-yl)acetamido)-3,3-dimethylbutanoyl)-4-hydroxy-N-(4-(4-methylthiazol-5-yl)benzyl)pyrrolidine-2-carboxamide]",IC50,[1],1.3 nM
same,DC50,[2],1.9 nM
"Cc1ncsc1-c1ccc(CNC(=O)[C@@H]2C[C@@H](O)CN2C(=O)[C@@H](NC(=O)COCCOCCOCCOc2cc(F)c([C@@H]3c4[nH]c5ccccc5c4C[C@@H](C)N3C[C@H](C)C(=O)O)c(F)c2)C(C)(C)C)cc1 [Example 30, (S)-3-((1R,3R)-1-(2,6-Difluoro-4-(((S)-13-((2S,4R)-4-hydroxy-2-((4-(4-methylthiazol-5-yl)benzyl)carbamoyl)pyrrolidine-1-carbonyl)-14,14-dimethyl-11-oxo-3,6,9-trioxa-12-azapentadecyl)oxy)phenyl)-3-methyl-1,3,4,9-tetrahydro-2H-pyrido[3,4-b]indol-2-yl)-2-methylpropanoic Acid]",IC50,[1],4.1 nM
same,DC50,[2],174 nM
"Cc1ncsc1-c1ccc(CNC(=O)[C@@H]2C[C@@H](O)CN2C(=O)[C@@H](NC(=O)COCCCOc2cc(F)c([C@@H]3c4[nH]c5ccccc5c4C[C@@H](C)N3CC(C)(C)F)c(F)c2)C(C)(C)C)cc1 [Example 41, (2S,4R)-1-((S)-2-(2-(3-(3,5-difluoro-4-((1R,3R)-2-(2-fluoro-2-methylpropyl)-3-methyl-2,3,4,9-tetrahydro-1H-pyrido[3,4-b]indol-1-yl)phenoxy)propoxy)acetamido)-3,3-dimethylbutanoyl)-4-hydroxy-N-(4-(4-methylthiazol-5-yl)benzyl)pyrrolidine-2-carboxamide]",IC50,[1],0.7 nM
same,DC50,[2],1.7 nM
"Cc1ncsc1-c1ccc(CNC(=O)[C@@H]2C[C@@H](O)CN2C(=O)[C@@H](NC(=O)CN2CCC3(CCN(CCOc4cc(F)c([C@@H]5c6[nH]c7ccccc7c6C[C@@H](C)N5CC(C)(C)F)c(F)c4)CC3)CC2)C(C)(C)C)cc1 [Example 43, (2S,4R)-1-((S)-2-(2-(9-(2-(3,5-difluoro-4-((R,3R)-2-(2-fluoro-2-methylpropyl)-3-methyl-2,3,4,9-tetrahydro-1H-pyrido[3,4-b]indol-1-yl)phenoxy)ethyl)-3,9-diazaspiro[5.5]undecan-3-yl)acetamido)-3,3-dimethylbutanoyl)-4-hydroxy-N-(4-(4-methylthiazol-5-yl)benzyl)pyrrolidine-2-carboxamide]",IC50,[1],2.3 nM
same,DC50,[2],4.8 nM
"Cc1ncsc1-c1ccc(CNC(=O)[C@@H]2C[C@@H](O)CN2C(=O)[C@@H](NC(=O)CN2CCC3(CC2)CCN(C(=O)COc2cc(F)c([C@@H]4c5[nH]c6ccccc6c5C[C@@H](C)N4CC(C)(C)F)c(F)c2)CC3)C(C)(C)C)cc1 [Example 44, (2S,4R)-1-((S)-2-(2-(9-(2-(3,5-difluoro-4-((R,3R)-2-(2-fluoro-2-methylpropyl)-3-methyl-2,3,4,9-tetrahydro-1H-pyrido[3,4-b]indol-1-yl)phenoxy)acetyl)-3,9-diazaspiro[5.5]undecan-3-yl)acetamido)-3,3-dimethylbutanoyl)-4-hydroxy-N-(4-(4-methylthiazol-5-yl)benzyl)pyrrolidine-2-carboxamide]",IC50,[1],1.3 nM
same,DC50,[2],1.8 nM
"Cc1ncsc1-c1ccc(CNC(=O)[C@@H]2C[C@@H](O)CN2C(=O)[C@@H](NCc2ccc(COc3cc(F)c([C@@H]4c5[nH]c6ccccc6c5C[C@@H](C)N4CC(C)(C)F)c(F)c3)cc2)C(C)(C)C)cc1 [Example 35, (2S,4R)-1-((S)-2-((4-((3,5-difluoro-4-((1R,3R)-2-(2-fluoro-2-methylpropyl)-3-methyl-2,3,4,9-tetrahydro-1H-pyrido[3,4-b]indol-1-yl)phenoxy)methyl)benzyl)amino)-3,3-dimethylbutanoyl)-4-hydroxy-N-(4-(4-methylthiazol-5-yl)benzyl)pyrrolidine-2-carboxamide]",IC50,[1],1 nM
same,DC50,[2],9.1 nM
"Cc1ncsc1-c1ccc([C@H](CN(C)C)NC(=O)[C@@H]2C[C@@H](O)CN2C(=O)[C@@H](NC(=O)COCCOCCOCCOc2cc(F)c([C@@H]3c4[nH]c5ccccc5c4C[C@@H](C)N3CC(C)(C)F)c(F)c2)C(C)(C)C)cc1 [Example 104, (2S,4R)-1-[(2S)-2-[[2-[2-[2-[2-[3,5-Difluoro-4-[(1R,3R)-2-(2-fluoro-2-methyl-propyl)-3-methyl-1,3,4,9-tetrahydropyrido[3,4-b]indol-1-yl]phenoxy]ethoxy]ethoxy]ethoxy]acetyl]amino]-3,3-dimethyl-butanoyl]-N-[(1R)-2-(dimethylamino)-1-[4-(4-methylthiazol-5-yl)phenyl]ethyl]-4-hydroxy-pyrrolidine-2-carboxamide]",IC50,[1],4.6 nM
same,DC50,[2],54 nM
"Cc1ncsc1-c1ccc(CNC(=O)[C@@H]2C[C@@H](O)CN2C(=O)[C@@H](NC(=O)c2ccc(COc3cc(F)c([C@@H]4c5[nH]c6ccccc6c5C[C@@H](C)N4CC(C)(C)F)c(F)c3)cc2)C(C)(C)C)cc1 [Example 36, (2S,4R)-1-((S)-2-(4-((3,5-Difluoro-4-((1R,3R)-2-(2-fluoro-2-methylpropyl)-3-methyl-2,3,4,9-tetrahydro-1H-pyrido[3,4-b]indol-1-yl)phenoxy)methyl)benzamido)-3,3-dimethylbutanoyl)-4-hydroxy-N-(4-(4-methylthiazol-5-yl)benzyl)pyrrolidine-2-carboxamide]",IC50,[1],1 nM
same,DC50,[2],1 nM
"Cc1ncsc1-c1ccc(CNC(=O)[C@@H]2C[C@@H](O)CN2C(=O)[C@@H](NC(=O)COCCCOCCOc2cc(F)c([C@@H]3c4[nH]c5ccccc5c4C[C@@H](C)N3CC(C)(C)F)c(F)c2)C(C)(C)C)cc1 [Example 25, (2S,4R)-1-((S)-2-(2-(3-(2-(3,5-Difluoro-4-((1R,3R)-2-(2-fluoro-2-methylpropyl)-3-methyl-2,3,4,9-tetrahydro-1H-pyrido[3,4-b]indol-1-yl)phenoxy)ethoxy)propoxy)acetamido)-3,3-dimethylbutanoyl)-4-hydroxy-N-(4-(4-methylthiazol-5-yl)benzyl)pyrrolidine-2-carboxamide]",IC50,[1],0.5 nM
same,ER degradation ≥ 90% at 0.3 μM,"[2]; 0.3 μM, ER degradation by fulvestrant at 0.3 μM is defined as 100%",••
"Cc1ncsc1-c1ccc(CNC(=O)[C@@H]2C[C@@H](O)CN2C(=O)[C@@H](NC(=O)COC2CCN(CCCNC(=O)/C=C/c3cc(F)c([C@@H]4c5[nH]c6ccccc6c5C[C@@H](C)N4CC(C)(C)F)c(F)c3)CC2)C(C)(C)C)cc1 [Example 65, (2S,4R)-1-((S)-2-(2-((1-(3-((E)-3-(3,5-difluoro-4-((1R,3R)-2-(2-fluoro-2-methylpropyl)-3-methyl-2,3,4,9-tetrahydro-1H-pyrido[3,4-b]indol-1-yl)phenyl)acrylamido)propyl)piperidin-4-yl)oxy)acetamido)-3,3-dimethylbutanoyl)-4-hydroxy-N-(4-(4-methylthiazol-5-yl)benzyl)pyrrolidine-2-carboxamide, Trifluoroacetic Acid]",IC50,[1],1.1 nM
same,DC50,[2],4.5 nM
"Cc1ncsc1-c1ccc(CNC(=O)[C@@H]2C[C@@H](O)CN2C(=O)[C@@H](NC(=O)CCOCCCCOc2cc(F)c([C@@H]3c4[nH]c5ccccc5c4C[C@@H](C)N3CC(C)(C)F)c(F)c2)C(C)(C)C)cc1 [Example 92, (2S,4R)-1-((S)-2-(3-(4-(3,5-difluoro-4-((1R,3R)-2-(2-fluoro-2-methylpropyl)-3-methyl-2,3,4,9-tetrahydro-1H-pyrido[3,4-b]indol-1-yl)phenoxy)butoxy)propanamido)-3,3-dimethylbutanoyl)-4-hydroxy-N-(4-(4-methylthiazol-5-yl)benzyl)pyrrolidine-2-carboxamide]",IC50,[1],0.6 nM
same,DC50,[2],0.4 nM
